# From patent US7439372B2, “Therapeutic compounds” (Allergan, Inc., priority 2006, dated 2008)
# Tests used:
# Ocular hyperemia in dog = format: in vivo; details: Conc. 0.1% (g/100 mL)
# [1] = Intraocular pressure in dog; format: in vivo; details: Conc. 0.1% (g/100 mL)
# Excerpt: U.S. patent application Ser. No. 11/553,143, filed on Oct. 26, 2006, incorporated by reference herein, describes the methods used to obtain the in vitro data in the table below.
# [2] = Intraocular pressure in monkey; format: in vivo; details: Conc. 0.1% (g/100 mL)
# EP2 = EP2 (Homo sapiens, UniProt P43116); test: Competition binding, [3H]PGE2, HEK 293 cells stably expressing human EP2 receptors; set-up: expressed in transfected cells; host or cells: HEK 293; details: [3H]PGE2 competition
# EP2, sequence (P43116 whole entry): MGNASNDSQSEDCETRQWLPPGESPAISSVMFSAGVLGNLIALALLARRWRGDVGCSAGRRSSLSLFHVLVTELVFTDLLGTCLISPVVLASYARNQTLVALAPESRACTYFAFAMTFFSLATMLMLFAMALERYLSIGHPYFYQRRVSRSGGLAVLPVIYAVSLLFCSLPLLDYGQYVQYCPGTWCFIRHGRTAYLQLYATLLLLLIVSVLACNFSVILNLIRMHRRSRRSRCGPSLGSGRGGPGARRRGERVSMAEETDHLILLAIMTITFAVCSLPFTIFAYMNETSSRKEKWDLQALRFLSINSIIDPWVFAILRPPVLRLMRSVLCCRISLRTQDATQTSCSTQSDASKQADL
# Protocol: Competition binding experiments were performed in a medium containing Hank's balanced salt solution, Hepes 20 mM, pH 7.3, membranes (˜60 μg protein) or 2×10^5 cells from HEK 293 cells stably expressing human EP2 receptors, [^3H]PGE2 (10 nM) and various concentrations of test compounds in a total volume of 300 μl. Reaction mixtures were incubated at 23° C. for 60 min, and were filtered over Whatman GF/B filters under vacuum. Filters were washed three times with 5 ml ice-cold buffer containing 50 mM Tris/HCl (pH 7.3). Non-specific binding was estimated in the presence of excess unlabeled PGE2 (10 μM). Binding data fitted to the binding model for a single class of binding sites, using nonlinear regression analysis. IC50 values thus obtained were converted to Ki using the equation of Ki=(IC50/(1+[L]/KD) where [L] represents PGE2 concentration (10 nM) and KD the dissociation constant for [3H]PGE2 at human EP2 receptors (40 nM).
# (§1) HEK-293 cells stably expressing the human or feline FP receptor, or EP1, EP2, or EP4 receptors were washed with TME buffer, scraped from the bottom of the flasks, and homogenized for 30 sec using a Brinkman PT 10/35 polytron. TME buffer was added to achieve a final 40 ml volume in the centrifuge tubes (the composition of TME is 100 mM TRIS base, 20 mM MgCl2, […]; 10N HCl is added to achieve a pH of 7.4).
# (§2) The cell homogenate was centrifuged at 19000 r.p.m. for 20 min at 4° C. using a Beckman Ti-60 rotor. The resultant pellet was resuspended in TME buffer to give a final 1 mg/ml protein concentration, as determined by Biorad assay. Radioligand binding competition assays vs. [^3H-]17-phenyl PGF2α (5 nM) were performed in a 100 μl volume for 60 min. Binding reactions were started by adding plasma membrane fraction. The reaction was terminated by the addition of 4 ml ice-cold TRIS-HCl buffer and rapid filtration through glass fiber GF/B filters using a Brandel cell harvester. The filters were washed 3 times with ice-cold buffer and oven dried for one hour.
# (§3) [^3H-]PGE2 (specific activity 180 Ci mmol) was used as the radioligand for EP receptors. [^3H]17-phenyl PGF2α was employed for FP receptor binding studies. Binding studies employing EP1, EP2, EP4 and FP receptors were performed in duplicate in at least three separate experiments. A 200 μl assay volume was used. Incubations were for 60 min at 25° C. and were terminated by the addition of 4 ml of ice-cold 50 mM TRIS-HCl, followed by rapid filtration through Whatman GF/B filters and three additional 4 ml washes in a cell harvester (Brandel). Competition studies were performed using a final concentration of 5 nM [^3H]-PGE2, or 5 nM [^3H] 17-phenyl PGF2α and non-specific binding determined with 10^−5M of unlabeled PGE2, or 17-phenyl PGF2α, according to receptor subtype studied.
# EP4 receptors = molecular target: T1, EP4 receptors (Homo sapiens, UniProt P35408); test: Radioligand binding, [3H]PGE2, HEK-293 cells stably expressing EP4 receptors; details: [3H]PGE2 competition
# T1 construct: expressed in transfected cells; host or cells: HEK-293
# T1 sequence (P35408 whole entry): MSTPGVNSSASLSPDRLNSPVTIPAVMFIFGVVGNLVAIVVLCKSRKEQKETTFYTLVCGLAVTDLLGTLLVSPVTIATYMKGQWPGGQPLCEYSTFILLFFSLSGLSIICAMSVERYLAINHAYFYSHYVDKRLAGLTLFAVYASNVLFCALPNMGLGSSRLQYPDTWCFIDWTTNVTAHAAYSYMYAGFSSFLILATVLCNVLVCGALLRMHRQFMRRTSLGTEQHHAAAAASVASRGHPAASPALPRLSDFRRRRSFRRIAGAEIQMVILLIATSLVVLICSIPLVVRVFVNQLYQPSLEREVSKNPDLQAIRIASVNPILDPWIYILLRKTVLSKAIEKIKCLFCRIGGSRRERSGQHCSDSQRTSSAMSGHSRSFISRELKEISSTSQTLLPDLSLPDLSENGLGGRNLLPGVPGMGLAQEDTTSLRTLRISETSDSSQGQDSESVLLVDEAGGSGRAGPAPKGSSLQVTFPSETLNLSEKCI
# Protocol: as §1, §2, §3
# hEP4/Gqs5 = molecular target: T2, hEP4/Gqs5 (Homo sapiens, UniProt P35408); test: FLIPR calcium signal, HEK-293(EBNA) cells expressing hEP4/Gqs5; format: cell-based
# T2 construct: expressed in transfected cells; host or cells: HEK-293(EBNA)
# T2 sequence (P35408 whole entry): as above
# Protocol: HEK-293(EBNA) cells, stably expressing one type or subtype of recombinant human prostaglandin receptors (prostaglandin receptors expressed: hDP/Gqs5; hEP1; hEP2/Gqs5; hEP3A/Gqi5; hEP4/Gqs5; hFP; hIP; hTP), were cultured in 100 mm culture dishes in high-glucose DMEM medium containing 10% fetal bovine serum, 2 mM l-glutamine, 250 µg/ml geneticin (G418) and 200 μg/ml hygromycin B as selection markers, and 100 units/ml penicillin G, 100 µg/ml streptomycin and 0.25 μg/ml amphotericin B.
# Cells were seeded at a density of 5×10^4 cells per well in Biocoat® Poly-D-lysine-coated black-wall, clear-bottom 96-well plates (Becton-Dickinson) and allowed to attach overnight in an incubator at 37° C. Cells were then washed two times with HBSS-HEPES buffer (Hanks Balanced Salt Solution without bicarbonate and phenol red, 20 mM HEPES, pH 7.4) using a Denley Cellwash plate washer (Labsystems). After 45 minutes of dye-loading in the dark, using the calcium-sensitive dye Fluo-4 […] at a final concentration of 2 μM, plates were washed four times with HBSS-HEPES buffer to remove excess dye leaving 100 μl in each well. Plates were re-equilibrated to 37° C. for a few minutes.
# Cells were excited with an Argon laser at 488 nm, and emission was measured through a 510-570 nm bandwidth emission filter (FLIPR™, Molecular Devices, Sunnyvale, Calif.). Drug solution was added in a 50 µl volume to each well to give the desired final concentration. The peak increase in fluorescence intensity was recorded for each well. On each plate, four wells each served as negative (HBSS-HEPES buffer) and positive controls (standard agonists: BW245C (hDP); PGE2 (hEP1; hEP2/Gqs5; hEP3A/Gqi5; hEP4/Gqs5); PGF2α (hFP); carbacyclin (hIP); U-46619 (hTP), depending on receptor). The peak fluorescence change in each drug-containing well was then expressed relative to the controls.
# Compounds were tested in a high-throughput (HTS) or concentration-response (CoRe) format. In the HTS format, forty-four compounds per plate were examined in duplicates at a concentration of 10^−5 M. To generate concentration-response curves, four compounds per plate were tested in duplicates in a concentration range between 10^−5 and 10^−11 M. The duplicate values were averaged. In either, HTS or CoRe format each compound was tested on at least 3 separate plates using cells from different passages to give an n≧3.
DOG Max. hyperemia (Ocular hyperemia in dog),Ki (EP2),Ki (EP4 receptors),Ca2+ Signal-EC50(nM) EP4 (hEP4/Gqs5),Structure (SMILES),DOG Max. ΔIOP (%) [1],MONKEY Max. ΔIOP (%) [2]
0.4,–,–,–,CCCCCC(O)c1ccc([C@@H]2[C@@H](CCCc3ccc(C(=O)OC(C)C)s3)CCC2(Cl)Cl)cc1 (some centres unmarked) [compound 2],−6%,−21%
–,> 10000 nM,4330 nM,notactive,CCCCCC(O)c1ccc([C@H]2C(=O)C=C[C@@H]2C/C=C\CCCC(=O)O)cc1 (some centres unmarked) [compound 4],–,–
1.6,–,–,–,CCCCCC(O)c1ccc([C@H]2C(=O)CC[C@@H]2CCCc2ccc(C(=O)OC(C)C)s2)cc1 (some centres unmarked) [compound 1],−37%,–
